Columns and labels:
[1] = system: Hepatotoxicity;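 as to HepSE Combined Scores: combined hepatic side effect score as listed in the training data of the Drug Induced Liver Injury Prediction System (DILIps)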;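 as to HepSE bilirubinemia: bilirubinemia hepatic side effect score drawn from the DILIps training data, a prediction system for drug-induced liver injury; call rule not given here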;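 as to HepSE cirrhosis: cirrhosis hepatic side effect score taken from the DILIps (drug-induced liver injury prediction) training set; call rule not given here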;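 as to HepSE elevated liver function tests: hepatic side effect score for raised liver function tests, as recorded in the DILIps training set used for predicting drug-induced liver injury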; as to HepSE hepatic failure: call rule not given here;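 as to HepSE hepatomegaly: hepatic side effect score for hepatomegaly, taken from the training set of the DILIps drug-induced liver injury prediction system; call rule not given here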; as to HepSE liver disease: call rule not given here
[2] = system: Hepatotoxicity; remark: listed apart in the source;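 as to HepSE Combined Scores: combined hepatic side effect score as listed in the training data of the Drug Induced Liver Injury Prediction System (DILIps)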;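 as to HepSE bilirubinemia: bilirubinemia hepatic side effect score drawn from the DILIps training data, a prediction system for drug-induced liver injury; call rule not given here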;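 as to HepSE cirrhosis: cirrhosis hepatic side effect score taken from the DILIps (drug-induced liver injury prediction) training set; call rule not given here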;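 as to HepSE elevated liver function tests: hepatic side effect score for raised liver function tests, as recorded in the DILIps training set used for predicting drug-induced liver injury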; as to HepSE hepatic failure: call rule not given here;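 as to HepSE hepatomegaly: hepatic side effect score for hepatomegaly, taken from the training set of the DILIps drug-induced liver injury prediction system; call rule not given here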; as to HepSE liver disease: call rule not given here
[3] = system: Hepatotoxicity; remark: listed apart in the source;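 as to HepSE Combined Scores: combined hepatic side effect score as listed in the training data of the Drug Induced Liver Injury Prediction System (DILIps)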;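 as to HepSE bilirubinemia: bilirubinemia hepatic side effect score drawn from the DILIps training data, a prediction system for drug-induced liver injury; call rule not given here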;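 as to HepSE cirrhosis: cirrhosis hepatic side effect score taken from the DILIps (drug-induced liver injury prediction) training set; call rule not given here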;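 as to HepSE elevated liver function tests: hepatic side effect score for raised liver function tests, as recorded in the DILIps training set used for predicting drug-induced liver injury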; as to HepSE hepatic failure: call rule not given here;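 as to HepSE hepatomegaly: hepatic side effect score for hepatomegaly, taken from the training set of the DILIps drug-induced liver injury prediction system; call rule not given here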; as to HepSE liver disease: call rule not given here
[4] = system: Hepatotoxicity; remark: listed apart in the source;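 as to HepSE Combined Scores: combined hepatic side effect score as listed in the training data of the Drug Induced Liver Injury Prediction System (DILIps)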;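 as to HepSE bilirubinemia: bilirubinemia hepatic side effect score drawn from the DILIps training data, a prediction system for drug-induced liver injury; call rule not given here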;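 as to HepSE cirrhosis: cirrhosis hepatic side effect score taken from the DILIps (drug-induced liver injury prediction) training set; call rule not given here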;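 as to HepSE elevated liver function tests: hepatic side effect score for raised liver function tests, as recorded in the DILIps training set used for predicting drug-induced liver injury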; as to HepSE hepatic failure: call rule not given here;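 as to HepSE hepatomegaly: hepatic side effect score for hepatomegaly, taken from the training set of the DILIps drug-induced liver injury prediction system; call rule not given here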; as to HepSE liver disease: call rule not given here
[5] = system: Hepatotoxicity; remark: listed apart in the source; as to HepSE hepatic failure: call rule not given here
[6] = system: Hepatotoxicity; remark: listed apart in the source; as to HepSE hepatic failure: call rule not given here
[7] = system: Hepatotoxicity; remark: listed apart in the source
[8] = system: Hepatotoxicity; remark: listed apart in the source
[9] = system: Hepatotoxicity; remark: listed apart in the source
[10] = system: Hepatotoxicity; remark: listed apart in the source
[11] = system: Hepatotoxicity; remark: listed apart in the source
[12] = system: Hepatotoxicity; remark: listed apart in the source
[13] = system: Hepatotoxicity; remark: listed apart in the source
[14] = system: Hepatotoxicity; remark: listed apart in the source

Row | Structure (SMILES) | HepSE_Combined Scores [1] | HepSE_hepatic failure [2] | HepSE_elevated liver function tests [3] | HepSE_hepatomegaly [4] | HepSE_cirrhosis [5] | HepSE_bilirubinemia [6] | HepSE_liver disease [7] | HepSE_liver fatty [8] | HepSE_liver function tests abnormal [9] | HepSE_hepatic necrosis [10] | HepSE_jaundice [11] | HepSE_cholecystitis [12] | HepSE_cholelithiasis [13] | HepSE_hepatitis [14] | further results
1 | C=C(CC)C(=O)c1ccc(OCC(=O)O)c(Cl)c1Cl [ETHACRYNIC ACID] | 2 | 0 | 0 | 0 | 0 | 0 | 0 | 0 | 1 | 0 | 1 | 0 | 0 | 0 | 
2 | CC[C@@H](CO)NCCN[C@@H](CC)CO [ETHAMBUTOL] | 2 | 0 | 0 | 0 | 0 | 0 | 0 | 0 | 1 | 0 | 0 | 0 | 0 | 1 | 
3 | CCc1cc(C(N)=S)ccn1 [ETHIONAMIDE] |  |  |  |  |  |  |  |  |  |  |  |  |  |  | HepSE_Combined Scores ([1]; Liver): 2; HepSE_hepatic failure ([2]; Liver): 0; HepSE_elevated liver function tests ([3]; Liver): 0; HepSE_hepatomegaly ([4]; Liver): 0; HepSE_cirrhosis ([5]; Liver): 0; HepSE_bilirubinemia ([6]; Liver): 0; HepSE_liver disease ([7]; Liver): 0; HepSE_liver fatty ([8]; Liver): 0; HepSE_liver function tests abnormal ([9]; Liver): 0; HepSE_hepatic necrosis ([10]; Liver): 0; HepSE_jaundice ([11]; Liver): 1; HepSE_cholecystitis ([12]; Liver): 0; HepSE_cholelithiasis ([13]; Liver): 0; HepSE_hepatitis ([14]; Liver): 1
4 | CCC1(C)CC(=O)NC1=O (configuration not stated) [ETHOSUXIMIDE] | 0 | 0 | 0 | 0 | 0 | 0 | 0 | 0 | 0 | 0 | 0 | 0 | 0 | 0 | 
5 | CCN1C(=O)NC(c2ccccc2)C1=O (configuration not stated) [ETHOTOIN] | 0 | 0 | 0 | 0 | 0 | 0 | 0 | 0 | 0 | 0 | 0 | 0 | 0 | 0 | 
6 | CC(O)(P(=O)(O)O)P(=O)(O)O [ETIDRONIC ACID] | 0 | 0 | 0 | 0 | 0 | 0 | 0 | 0 | 0 | 0 | 0 | 0 | 0 | 0 | 
7 | CCc1cccc2c3c([nH]c12)C(CC)(CC(=O)O)OCC3 (configuration not stated) [ETODOLAC] | 4 | 1 | 0 | 0 | 0 | 0 | 0 | 0 | 0 | 1 | 1 | 0 | 0 | 1 | 
8 | CCOC(=O)c1cncn1[C@H](C)c1ccccc1 [ETOMIDATE] | 0 | 0 | 0 | 0 | 0 | 0 | 0 | 0 | 0 | 0 | 0 | 0 | 0 | 0 | 
9 | COc1cc([C@@H]2c3cc4c(cc3[C@@H](O[C@@H]3O[C@@H]5CO[C@@H](C)O[C@H]5[C@H](O)[C@H]3O)[C@H]3COC(=O)[C@H]23)OCO4)cc(OC)c1O [ETOPOSIDE] |  |  |  |  |  |  |  |  |  |  |  |  |  |  | HepSE_Combined Scores ([1]; Liver): 0; HepSE_hepatic failure ([2]; Liver): 0; HepSE_elevated liver function tests ([3]; Liver): 0; HepSE_hepatomegaly ([4]; Liver): 0; HepSE_cirrhosis ([5]; Liver): 0; HepSE_bilirubinemia ([6]; Liver): 0; HepSE_liver disease ([7]; Liver): 0; HepSE_liver fatty ([8]; Liver): 0; HepSE_liver function tests abnormal ([9]; Liver): 0; HepSE_hepatic necrosis ([10]; Liver): 0; HepSE_jaundice ([11]; Liver): 0; HepSE_cholecystitis ([12]; Liver): 0; HepSE_cholelithiasis ([13]; Liver): 0; HepSE_hepatitis ([14]; Liver): 0
10 | C=C1C[C@@H]2[C@H](CC[C@]3(C)C(=O)CC[C@@H]23)[C@@]2(C)C=CC(=O)C=C12 [EXEMESTANE] | 1 | 0 | 0 | 0 | 0 | 0 | 0 | 0 | 0 | 0 | 0 | 0 | 0 | 1 | 
11 | O=C1[C@H](CC[C@H](O)c2ccc(F)cc2)[C@@H](c2ccc(O)cc2)N1c1ccc(F)cc1 [EZETIMIBE] | 3 | 0 | 0 | 0 | 0 | 0 | 0 | 0 | 0 | 0 | 0 | 1 | 1 | 1 | 
12 | CC(=O)OCC(CCn1cnc2cnc(N)nc21)COC(C)=O [FAMCICLOVIR] | 3 | 0 | 0 | 0 | 0 | 1 | 0 | 0 | 1 | 0 | 1 | 0 | 0 | 0 | 
13 | NC(N)=Nc1nc(CSCCC(N)=NS(N)(=O)=O)cs1 [FAMOTIDINE] |  |  |  |  |  |  |  |  |  |  |  |  |  |  | HepSE_Combined Scores ([1]; Liver): 1; HepSE_hepatic failure ([2]; Liver): 0; HepSE_elevated liver function tests ([3]; Liver): 0; HepSE_hepatomegaly ([4]; Liver): 0; HepSE_cirrhosis ([5]; Liver): 0; HepSE_bilirubinemia ([6]; Liver): 0; HepSE_liver disease ([7]; Liver): 0; HepSE_liver fatty ([8]; Liver): 0; HepSE_liver function tests abnormal ([9]; Liver): 0; HepSE_hepatic necrosis ([10]; Liver): 0; HepSE_jaundice ([11]; Liver): 1; HepSE_cholecystitis ([12]; Liver): 0; HepSE_cholelithiasis ([13]; Liver): 0; HepSE_hepatitis ([14]; Liver): 0
14 | CCOC(=O)C1=C(C)NC(C)=C(C(=O)OC)C1c1cccc(Cl)c1Cl (configuration not stated) [FELODIPINE] | 1 | 0 | 0 | 0 | 0 | 0 | 0 | 0 | 0 | 0 | 0 | 0 | 0 | 1 | 
15 | CC(C)OC(=O)C(C)(C)Oc1ccc(C(=O)c2ccc(Cl)cc2)cc1 [FENOFIBRATE] | 7 | 0 | 0 | 0 | 1 | 0 | 0 | 1 | 1 | 0 | 1 | 1 | 1 | 1 | 
16 | Oc1ccc(C2CNCCc3c2cc(O)c(O)c3Cl)cc1 (configuration not stated) [FENOLDOPAM] | 0 | 0 | 0 | 0 | 0 | 0 | 0 | 0 | 0 | 0 | 0 | 0 | 0 | 0 | 
17 | CC(C(=O)O)c1cccc(Oc2ccccc2)c1 (configuration not stated) [FENOPROFEN] | 2 | 0 | 0 | 0 | 0 | 0 | 0 | 0 | 0 | 0 | 1 | 0 | 0 | 1 | 
18 | CC(C)(C)NC(=O)[C@H]1CC[C@H]2[C@@H]3CC[C@H]4NC(=O)C=C[C@]4(C)[C@H]3CC[C@]12C [FINASTERIDE] | 0 | 0 | 0 | 0 | 0 | 0 | 0 | 0 | 0 | 0 | 0 | 0 | 0 | 0 | 

Reference: ChEMBL document CHEMBL1909294, “Translating clinical findings into knowledge in drug safety evaluation--drug induced liver injury prediction system (DILIps)” (PLoS Comput Biol, 2011)
